Source: patent US5304367A, “In vivo brain imaging agent and method for diagnosis of psychiatric disorders” (New York University, priority 1990, dated 1994)
Like-named read-outs stand apart in the source and are kept apart here.

How the values were obtained:
βAR [1] = format: binding, human
βAR [2] = assay: quantitative autoradiography, age dependence of βAR distribution in the human brain; format: binding
[3] = whole body distribution, female BALB/c mice, 500 μCi/kg; format: in vivo, mouse (BALB/c)
[4] = whole body distribution, mice, 2 μCi; format: in vivo, mouse
Method: In a subsequent study, whole body distribution was examined in mice following tail vein injection of 2 μCi ^125 I-iodopindolol. Animals were sacrificed at various time points up to 22 hours post-injection. Percent injected dose (%ID) was determined in 11 organs, blood and urine. At one minute, lungs contained the highest %ID (17%), heart 3-4 %ID and brain 0.3%ID.

In the case of `CC(C)NCC(O)COc1cccc2[nH]cc([125I])c12` (stereo not shown) [^125 I-iodopindolol], the specific binding (βAR [1]; cingulate gyrus, external band, female, n=4) is reported as 1.20 ± 0.31 fmol [^125 I]iodopindolol/mg tissue, the specific binding (βAR [1]; cingulate gyrus, external band, male, n=10) is reported as 0.99 ± 0.18 fmol [^125 I]iodopindolol/mg tissue and the specific binding (βAR [1]; cingulate gyrus, internal band, female, n=4) is reported as 1.31 ± 0.24 fmol [^125 I]iodopindolol/mg tissue. The specific binding (βAR [1]; cingulate gyrus, internal band, male, n=10) was 0.87 ± 0.16 fmol [^125 I]iodopindolol/mg tissue, the specific binding (βAR [1]; gyrus rectus, external band, female, n=3) was 1.42 ± 0.13 fmol [^125 I]iodopindolol/mg tissue and the specific binding (βAR [1]; gyrus rectus, external band, male, n=9) was 0.93 ± 0.18 fmol [^125 I]iodopindolol/mg tissue. For the same molecule, the specific binding (βAR [1]; gyrus rectus, internal band, female, n=3) was 1.24 ± 0.23 fmol [^125 I]iodopindolol/mg tissue, the specific binding (βAR [1]; gyrus rectus, internal band, male, n=9) was 0.80 ± 0.13 fmol [^125 I]iodopindolol/mg tissue and the specific binding (βAR [1]; inferior frontal gyrus, external band, female, n=5) was 1.08 ± 0.19 fmol [^125 I]iodopindolol/mg tissue. For the same molecule, the specific binding (βAR [1]; inferior frontal gyrus, external band, male, n=11) was 0.86 ± 0.13 fmol [^125 I]iodopindolol/mg tissue, the specific binding (βAR [1]; inferior frontal gyrus, internal band, female, n=5) was 0.99 ± 0.16 fmol [^125 I]iodopindolol/mg tissue and the specific binding (βAR [1]; inferior frontal gyrus, internal band, male, n=11) was 0.78 ± 0.13 fmol [^125 I]iodopindolol/mg tissue. The specific binding (βAR [1]; medial frontal gyrus, external band, female, n=5) was 1.36 ± 0.23 fmol [^125 I]iodopindolol/mg tissue, the specific binding (βAR [1]; medial frontal gyrus, external band, male, n=13) was 0.77 ± 0.12 fmol [^125 I]iodopindolol/mg tissue and the specific binding (βAR [1]; medial frontal gyrus, internal band, female, n=5) was 1.09 ± 0.16 fmol [^125 I]iodopindolol/mg tissue. For the same molecule, the specific binding (βAR [1]; medial frontal gyrus, internal band, male, n=12) was 0.71 ± 0.10 fmol [^125 I]iodopindolol/mg tissue, the specific binding (βAR [1]; orbital gyri, external band, female, n=4) was 1.46 ± 0.25 fmol [^125 I]iodopindolol/mg tissue and the specific binding (βAR [1]; orbital gyri, external band, male, n=11) was 0.77 ± 0.12 fmol [^125 I]iodopindolol/mg tissue. The specific binding (βAR [1]; orbital gyri, internal band, female, n=4) was 1.24 ± 0.18 fmol [^125 I]iodopindolol/mg tissue, the specific binding (βAR [1]; orbital gyri, internal band, male, n=10) was 0.70 ± 0.10 fmol [^125 I]iodopindolol/mg tissue and the specific binding (βAR [1]; superior frontal gyrus, external band, female, n=6) was 1.48 ± 0.25 fmol [^125 I]iodopindolol/mg tissue. For the same molecule, the specific binding (βAR [1]; superior frontal gyrus, external band, male, n=16) was 0.87 ± 0.09 fmol [^125 I]iodopindolol/mg tissue, the specific binding (βAR [1]; superior frontal gyrus, internal band, female, n=6) was 1.24 ± 0.12 fmol [^125 I]iodopindolol/mg tissue and the specific binding (βAR [1]; superior frontal gyrus, internal band, male, n=16) was 0.82 ± 0.07 fmol [^125 I]iodopindolol/mg tissue. For the same molecule, the specific binding (βAR [1]; white matter, female, n=6) was 0.78 ± 0.09 fmol [^125 I]iodopindolol/mg tissue, the specific binding (βAR [1]; white matter, male, n=16) was 0.46 ± 0.04 fmol [^125 I]iodopindolol/mg tissue and the specifically bound (βAR [2]; caudate nucleus, head, male, N=5) was 1.45 ± 0.34 fmol [^125 I]iodopindolol/mg tissue. For the same molecule, the specifically bound (βAR [2]; caudate nucleus, tail, female, N=8) was 1.15 ± 0.17 fmol [^125 I]iodopindolol/mg tissue, the specifically bound (βAR [2]; caudate nucleus, tail, male, N=14) was 1.39 ± 0.23 fmol [^125 I]iodopindolol/mg tissue and the specifically bound (βAR [2]; claustrum, female, N=5) was 0.64 ± 0.18 fmol [^125 I]iodopindolol/mg tissue. The specifically bound (βAR [2]; claustrum, male, N=9) was 0.86 ± 0.14 fmol [^125 I]iodopindolol/mg tissue, the specifically bound (βAR [2]; entorhinal cortex, female, N=3) was 0.94 ± 0.33 fmol [^125 I]iodopindolol/mg tissue and the specifically bound (βAR [2]; entorhinal cortex, male, N=10) was 1.00 ± 0.19 fmol [^125 I]iodopindolol/mg tissue. For the same molecule, the specifically bound (βAR [2]; globus pallidus, lateral, female, N=5) was 0.78 ± 0.16 fmol [^125 I]iodopindolol/mg tissue, the specifically bound (βAR [2]; globus pallidus, lateral, male, N=8) was 0.85 ± 0.20 fmol [^125 I]iodopindolol/mg tissue and the specifically bound (βAR [2]; globus pallidus, medial, female, N=3) was 0.44 ± 0.09 fmol [^125 I]iodopindolol/mg tissue. The specifically bound (βAR [2]; globus pallidus, medial, male, N=8) was 0.73 ± 0.17 fmol [^125 I]iodopindolol/mg tissue, the specifically bound (βAR [2]; hippocampus, CA fields, molecular layer, female, N=4) was 1.70 ± 0.40 fmol [^125 I]iodopindolol/mg tissue and the specifically bound (βAR [2]; hippocampus, CA fields, molecular layer, male, N=13) was 1.74 ± 0.26 fmol [^125 I]iodopindolol/mg tissue. For the same molecule, the specifically bound (βAR [2]; hippocampus, CA fields, pyramidal layer, female, N=4) was 1.70 ± 0.26 fmol [^125 I]iodopindolol/mg tissue, the specifically bound (βAR [2]; hippocampus, CA fields, pyramidal layer, male, N=13) was 1.74 ± 0.26 fmol [^125 I]iodopindolol/mg tissue and the specifically bound (βAR [2]; inferior temporal gyrus, external band, female, N=5) was 1.21 ± 0.14 fmol [^125 I]iodopindolol/mg tissue. For the same molecule, the specifically bound (βAR [2]; inferior temporal gyrus, external band, male, N=13) was 1.04 ± 0.16 fmol [^125 I]iodopindolol/mg tissue, the specifically bound (βAR [2]; inferior temporal gyrus, internal band, female, N=6) was 1.11 ± 0.17 fmol [^125 I]iodopindolol/mg tissue and the specifically bound (βAR [2]; inferior temporal gyrus, internal band, male, N=13) was 1.14 ± 0.17 fmol [^125 I]iodopindolol/mg tissue. The specifically bound (βAR [2]; lateral occipitotemporal gyrus, external band, female, N=6) was 0.93 ± 0.19 fmol [^125 I]iodopindolol/mg tissue, the specifically bound (βAR [2]; lateral occipitotemporal gyrus, external band, male, N=13) was 0.94 ± 0.13 fmol [^125 I]iodopindolol/mg tissue and the specifically bound (βAR [2]; lateral occipitotemporal gyrus, internal band, female, N=6) was 0.86 ± 0.11 fmol [^125 I]iodopindolol/mg tissue. The specifically bound (βAR [2]; lateral occipitotemporal gyrus, internal band, male, N=13) was 1.02 ± 0.14 fmol [^125 I]iodopindolol/mg tissue, the specifically bound (βAR [2]; medial temporal gyrus, external band, female, N=6) was 1.03 ± 0.15 fmol [^125 I]iodopindolol/mg tissue and the specifically bound (βAR [2]; medial temporal gyrus, external band, male, N=13) was 1.05 ± 0.18 fmol [^125 I]iodopindolol/mg tissue. For the same molecule, the specifically bound (βAR [2]; medial temporal gyrus, internal band, female, N=6) was 1.06 ± 0.15 fmol [^125 I]iodopindolol/mg tissue, the specifically bound (βAR [2]; medial temporal gyrus, internal band, male, N=13) was 1.18 ± 0.17 fmol [^125 I]iodopindolol/mg tissue and the specifically bound (βAR [2]; parahippocampal gyrus, external band, female, N=7) was 1.22 ± 0.32 fmol [^125 I]iodopindolol/mg tissue. For the same molecule, the specifically bound (βAR [2]; parahippocampal gyrus, external band, male, N=13) was 1.07 ± 0.19 fmol [^125 I]iodopindolol/mg tissue, the specifically bound (βAR [2]; parahippocampal gyrus, internal band, female, N=6) was 1.01 ± 0.23 fmol [^125 I]iodopindolol/mg tissue and the specifically bound (βAR [2]; parahippocampal gyrus, internal band, male, N=13) was 0.95 ± 0.15 fmol [^125 I]iodopindolol/mg tissue. The specifically bound (βAR [2]; putamen, female, N=6) was 1.05 ± 0.22 fmol [^125 I]iodopindolol/mg tissue, the specifically bound (βAR [2]; putamen, male, N=11) was 1.24 ± 0.18 fmol [^125 I]iodopindolol/mg tissue and the specifically bound (βAR [2]; subiculum, female, N=5) was 1.35 ± 0.33 fmol [^125 I]iodopindolol/mg tissue. The specifically bound (βAR [2]; subiculum, male, N=12) was 1.36 ± 0.20 fmol [^125 I]iodopindolol/mg tissue, the specifically bound (βAR [2]; superior temporal gyrus, external band, female, N=6) was 1.18 ± 0.18 fmol [^125 I]iodopindolol/mg tissue and the specifically bound (βAR [2]; superior temporal gyrus, external band, male, N=14) was 1.13 ± 0.16 fmol [^125 I]iodopindolol/mg tissue. The specifically bound (βAR [2]; superior temporal gyrus, internal band, female, N=6) was 1.04 ± 0.13 fmol [^125 I]iodopindolol/mg tissue, the specifically bound (βAR [2]; superior temporal gyrus, internal band, male, N=14) was 1.18 ± 0.15 fmol [^125 I]iodopindolol/mg tissue and the specifically bound (βAR [2]; white matter, female, N=8) was 0.47 ± 0.09 fmol [^125 I]iodopindolol/mg tissue. The specifically bound (βAR [2]; white matter, male, N=18) was 0.59 ± 0.07 fmol [^125 I]iodopindolol/mg tissue, the “brain levels relative to blood levels (mCi per gram of brain / mCi per ml blood)” value ([3]; 1 minute post-injection) was “about 1/5” and the “brain levels, injected dose” value ([3]; 1 minute post-injection) was “less than 1 % of injected dose”. For the same molecule, the urine levels ([3]; 1 minute post-injection) was “below the threshold of detection”, the “highest concentrations of radioactivity (counts/gram of tissue)” value ([3]; 1 minute post-injection, 500 μCi/kg i.v.) was “in the lungs, followed by heart and other organs” and the receptor occupancy ([3]; 120 min, based on Bmax of approximately 2 pmole/gram brain) was “less than 1%”. For the same molecule, the “Bmax used for receptor occupancy” value ([3]; extrapolated from rat and human values) was “approximately 2 pmole/gram brain”, the “brain levels, total injected dose” value ([3]; two hours later (120 min)) was 0.06 % of total injected dose and the “highest activity, order of organs” value ([3]; two hours later (120 min)) was “highest activity was found in urine, followed by lung, heart and brain”. The “radioactivity in all organs” value ([4]; between 2-4 hours post-injection) was “fell in all organs”, the “brain, percent injected dose (%ID)” value ([4]; one minute, 2 μCi tail vein) was 0.3 %ID and the “heart, percent injected dose (%ID)” value ([4]; one minute, 2 μCi tail vein) was 3-4 %ID. The “lungs, percent injected dose (%ID)” value ([4]; one minute, 2 μCi tail vein) was 17 %ID, the “brain levels, time course” value ([4]; until two hours post-injection) was “remained stable until two hours post-injection” and the lung radioactivity ([4]; until two hours post-injection) was “declined”. The “stomach and intestine radioactivity” value ([4]; until two hours post-injection) was “increased”.
